Results as given in ChEMBL document CHEMBL1201862, “PubChem BioAssay data set” (2004).
Several values for one entry are separate records, joined by “and”; a condition that tells them apart may be missing. Equal entries are not always repeated.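 Cells were grown in 96-well plates and exposed to each compound for 48 hours at five concentrations; endpoints were interpolated linearly between bracketing concentrations, or set to the highest concentration if not reached. At the GI50, growth is halved.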 Activity calls are given as the source filed them. No stated cut-off is given here; in the data, active = GI50 up to about 1.1 µM and inactive = higher. Where a SMILES comes first, the peptide text is derived from it. [ ]: non-standard residue; d: D form. The star is where a group is joined. Phe(4-NO2) = N[CH](Cc1ccc([N+](=O)[O-])cc1)C(=O)O; Boc = CC(C)(C)OC(=O)*; OtBu = CC(C)(C)O*

Experiments:
Assay in all cases: growth of human tumour cells (NCI), 48 h
[1] = tested on: HT-29
[2] = tested on: HL-60
[3] = tested on: NCI-H522
[4] = tested on: HCT-116
[5] = tested on: PC-3
[6] = tested on: 786-0
[7] = tested on: MOLT-4
[8] = tested on: BT-549
[9] = tested on: NCI/ADR-RES
[10] = tested on: RXF 393
[11] = tested on: M14
[12] = tested on: A498
[13] = tested on: CAKI-1
[14] = tested on: OVCAR-5
[15] = tested on: SK-MEL-2
[16] = tested on: U-251
[17] = tested on: UACC-62
[18] = tested on: OVCAR-3
[19] = tested on: KM12
[20] = tested on: DU-145

Measured: GI50

COc1ccccc1NC(=O)C(=O)C(C#N)CC(C)(C)C=O (centres undefined)
inactive: [1] > 100 µM | [2] > 100 µM | [3] > 100 µM | [4] > 100 µM | [5] > 100 µM | [6] > 100 µM | [7] > 100 µM | [8] > 100 µM | [9] > 100 µM | [10] > 100 µM | [11] > 100 µM | [12] > 100 µM | [13] > 100 µM | [14] > 100 µM | [15] > 100 µM | [16] > 100 µM | [17] > 100 µM | [18] > 100 µM | [19] > 100 µM

C=C=C(C)[Si](C)(C)C
inactive: [1] > 100 µM | [2] 23.7 µM | [3] > 100 µM | [4] > 100 µM | [5] > 100 µM | [6] > 100 µM | [7] > 100 µM | [9] > 100 µM | [10] > 100 µM | [11] > 100 µM | [12] > 100 µM | [13] > 100 µM | [14] > 100 µM | [15] > 100 µM | [20] > 100 µM | [16] > 100 µM | [17] > 100 µM | [18] > 100 µM | [19] > 100 µM

C1CSCCCSCCSCCCSC1
inactive: [1] > 100 µM | [3] 67.9 µM | [4] > 100 µM | [5] > 100 µM | [6] > 100 µM | [7] > 100 µM | [8] > 100 µM | [10] > 100 µM | [11] > 100 µM | [12] > 100 µM | [13] > 100 µM | [14] > 100 µM | [15] > 100 µM | [20] > 100 µM | [16] > 100 µM | [17] > 100 µM

C#CCn1c(=O)c2ccccc2n(CC#C)c1=O
inactive: [1] > 10 µM | [3] > 10 µM | [4] > 10 µM | [5] > 10 µM | [6] > 10 µM | [7] > 10 µM | [9] > 10 µM | [10] > 10 µM | [11] > 10 µM | [12] > 10 µM | [13] > 10 µM | [14] > 10 µM | [15] > 10 µM | [20] > 10 µM | [16] > 10 µM | [18] > 10 µM | [19] > 10 µM

NC1=C(N2CCCCC2)C(=O)NC2=N/C(=C\c3ccccc3)C(=O)N21
inactive: [1] > 100 µM | [2] 32 µM | [3] 63.2 µM | [4] > 100 µM | [6] > 100 µM | [7] 62.1 µM | [9] > 100 µM | [10] > 100 µM | [11] > 100 µM | [12] > 100 µM | [13] > 100 µM | [14] > 100 µM | [20] > 100 µM | [16] > 100 µM | [19] > 100 µM

CC(=O)OC1CC2CCC1(C)C2(C)C (centres undefined)
inactive: [1] > 100 µM | [2] > 100 µM | [3] > 100 µM | [4] > 100 µM | [5] > 100 µM | [6] > 100 µM | [7] > 100 µM | [9] > 100 µM | [10] > 100 µM | [11] > 100 µM | [12] > 100 µM | [14] > 100 µM | [15] > 100 µM | [20] > 100 µM | [16] > 100 µM | [17] > 100 µM | [18] > 100 µM | [19] > 100 µM

N=C(N)N/N=C/c1cc(Cl)cc(Cl)c1O
inactive: [1] 62.1 µM | [2] 33.2 µM | [3] 56.5 µM | [4] 57 µM | [5] 36.7 µM | [6] 76.7 µM | [7] 50.4 µM | [9] 35.5 µM | [10] 58.5 µM | [11] 54.5 µM | [12] 51.1 µM | [13] 38.7 µM | [14] 78.2 µM | [15] 34.1 µM | [20] 75 µM | [16] 48.5 µM | [17] 41 µM | [18] 67.3 µM | [19] 45.1 µM

Fc1cc(C2=Nn3c(COc4ccccc4Cl)nnc3S/C2=C\c2ccc(Cl)cc2)c(Cl)cc1Cl
inactive: [1] 3.18 µM | [2] 4.49 µM | [3] 5.5 µM | [4] 2.74 µM | [5] 12.3 µM | [6] 4.23 µM | [7] 5.97 µM | [9] 4.24 µM | [10] 9.89 µM | [11] 3.75 µM | [12] 14.2 µM | [13] 8.02 µM | [14] 3.96 µM | [15] 13.3 µM | [20] 5.97 µM | [16] 3.2 µM | [18] 17.1 µM | [19] 3.21 µM

COCC1OCCN1C (centres undefined)
inactive: [1] > 100 µM | [3] > 100 µM | [4] > 100 µM | [5] > 100 µM | [6] > 100 µM | [7] > 100 µM | [8] > 100 µM | [9] > 100 µM | [10] > 100 µM | [11] > 100 µM | [12] > 100 µM | [13] > 100 µM | [14] > 100 µM | [15] > 100 µM | [16] > 100 µM | [17] > 100 µM | [18] > 100 µM | [19] 88.3 µM

COC(C)(C)[C@@H]1CCCN1C1=C(C)C(=O)OC1
inactive: [2] > 100 µM | [4] > 100 µM | [5] > 100 µM | [6] > 100 µM | [7] > 100 µM | [9] > 100 µM | [10] > 100 µM | [13] > 100 µM | [14] > 100 µM | [15] > 100 µM | [20] > 100 µM | [16] > 100 µM | [17] > 100 µM

CCOC(=O)/C(C#N)=C/c1ccc(CO)o1
inactive: [1] > 100 µM | [3] > 100 µM | [4] > 100 µM | [5] > 100 µM | [6] > 100 µM | [7] > 100 µM | [9] > 100 µM | [10] > 100 µM | [11] > 100 µM | [12] > 100 µM | [13] > 100 µM | [14] > 100 µM | [20] > 100 µM | [16] > 100 µM | [17] > 100 µM | [18] > 100 µM | [19] > 100 µM

Cc1ccc(/C=C/C(=O)c2ccc(Cl)c(Cl)c2)cc1
inactive: [1] > 100 µM | [2] > 100 µM | [3] > 100 µM | [4] > 100 µM | [6] > 100 µM | [7] > 100 µM | [10] 84.1 µM | [11] > 100 µM | [12] > 100 µM | [13] > 100 µM | [14] > 100 µM | [15] > 100 µM | [16] > 100 µM | [17] > 100 µM | [18] > 100 µM | [19] > 100 µM

O=C(/C=C/c1cccs1)c1ccccc1Cl
inactive: [1] 16.9 µM | [2] 5.81 µM | [3] 2.77 µM | [4] 13 µM | [5] 15.4 µM | [6] 14.1 µM | [7] 5.7 µM | [9] 15 µM | [10] 7.24 µM | [11] 1.99 µM | [12] 10.2 µM | [13] 10.6 µM | [14] 14.6 µM | [15] 20.1 µM | [20] 12.4 µM | [16] 13.5 µM | [17] 13.3 µM | [18] 14.1 µM | [19] 7.31 µM

COC(=O)[C@@H]1[C@H](O)[C@H](C)[C@H](O)[C@@](C)(O)/C=C\C=C(\C)C(=O)Nc2c(C)c(OC(C)=O)c3c(c2O)C(=O)C(C)=C2OCOC(=C23)/C(C)=C/[C@@](C)(O)[C@H](O)[C@@H](C)[C@H]1OC(C)=O
inactive: [1] 38.5 µM and 56.6 µM | [2] 20.5 µM | [3] 47.2 µM and 21.5 µM | [4] 29.2 µM | [5] > 66.8 µM | [6] > 100 µM and 69.5 µM | [7] 27.7 µM and 61.7 µM | [10] 62.7 µM | [12] > 66.8 µM | [13] 93.8 µM | [14] > 66.8 µM | [15] 37.2 µM | [20] > 66.8 µM | [16] 17.3 µM | [17] 41.3 µM | [18] 43.1 µM and 32 µM | [19] 47.8 µM

CC(=O)NC(CCC(=O)OC(C)(C)C)C(=O)NC(CCC(=O)OC(C)(C)C)C(=O)NC(Cc1ccc([N+](=O)[O-])cc1)C(=O)NC(CCCCNC(=O)OC(C)(C)C)C(=O)NC(CCCCNC(=O)OC(C)(C)C)C(=O)NCC(=O)O (centres undefined) (Ac-E(OtBu)E(OtBu)[Phe(4-NO2)]K(Boc)K(Boc)G-OH; configuration not given here)
inactive: [1] > 100 µM | [2] > 100 µM | [3] > 100 µM | [4] > 100 µM | [5] > 100 µM | [6] > 100 µM | [7] > 100 µM | [9] > 100 µM | [10] > 100 µM | [11] 20.5 µM | [13] > 100 µM | [14] > 100 µM | [15] 75.2 µM | [20] > 100 µM | [16] > 100 µM | [17] > 100 µM | [18] > 100 µM | [19] > 100 µM
